# Source: patent US20150038473A1, “STABLE POVIDONE-IODINE COMPOSITIONS WITH STEROIDS OR NON-STEROIDAL ANTI-INFLAMMATORIES” (FORESIGHT BIOTHERAPEUTICS, INC., priority 2011, published 2015)
# Several values for one entry are separate records, joined by “and”; a condition that tells them apart may be missing. Identical values can stand only once.
# Experiments:
# [1] = Stability testing of steroids and NSAIDS combined with 0.6% povidone iodine at room temperature
# Description: Steroids and NSAIDS were mixed with PVP-I at the concentration of 0.6% w/w on Day 1. The resultant mixtures will be split to glass vials and stored at room temperature. fluorometholone alcohol, medrysone, prednisone sodium phosphate, rimexolone, hydrocortisone, hydrocortisone acetate, lodoxamide tromethamine, nepafenac, bromfenac, and ketorolac. Testing timepoints included day 0 (Time Zero), and week 4. Tests were conducted at room temperature. The testing samples were analyzed using liquid chromatography and tandem mass spectrometry (LC/MS/MS) methods at Day 0, and Week 4. The steroids and NSAIDS standards were also analyzed and steroids and NSAIDS levels in testing samples were determined.
# For Tables VIII-XIII, a: Nominal concentration in HPLC samples; b: Calculated concentration in HPLC samples; c: Dilution factor; d: Calculated concentration in stability samples; e: Spiked 50 μL of H2O and stored at room temperature without PVP-I.
# [2] = Stability testing of steroids combined with povidone iodine (PVP-I, 0.4%), HPLC/UV with LC-MS/MS confirmation; details: for degradation products observed: two week and/or one month samples in the presence of PVP-I 0.4%
# Description: PVP-I was prepared in water at the concentration of 100 mg/mL (10%). One milliliter of the solution, suspension, or emulsion was mixed with 40 μL of 10% PVP-I in 1.5 mL amber glass vials, followed by storage under both room temperature and 40° C. for 2 weeks and one month. The resultant samples in the presence of PVP-I were analyzed using HPLC. The four steroid levels were measured against the reference standard samples stored under room temperature in the absence of PVP-I (0.4%).
# Weigh 1 g of PVP-I and dissolve in 10 mL of water.
# Aliquot 1 mL of ophthalmic solution (USP, 0.1%) into eight amber HPLC vials to give the following samples:
# Used the resultant samples as time zero samples for HPLC analysis.
# The same as Method 1 except the gradient was changed as follows: […]
# The software provided with the HPLC system (LCSolution™ software, version 1.23, installed by SHIMADZU) was used to integrate the peak area.
# The measured peak area was converted into concentrations (μg/mL) using the following equation: […]
# HPLC Methods: The same as HPLC Method 1, 2, and 3 under Section 2.4.
# The Day 0, Two Week, and One Month stability test samples were analyzed with reference standard samples (stored at room temperature in the absence of PVP I) using HPLC Method 1. The sample in the absence of PVP-I with the same concentration of dexamethasone phosphate as those stability samples at the presence of PVP-I was stored in the same stability chamber at 40° C. for one month as control sample. The control sample was analyzed under the same conditions. The concentrations of dexamethasone phosphate in the stability samples were calculated. The HPLC/UV chromatograms of all reference standards and stability testing samples are depicted in FIG. 6 to FIG. 13.
# (§1) The Day 0, Two Week, and One Month stability test samples were analyzed with reference standard samples (stored at room temperature in the absence of PVP I) using HPLC Method 2. The sample in the absence of PVP-I with the same concentration of prednisolone acetate as those stability samples at the presence of PVP-I was stored in the same stability chamber at 40° C. for two week and one month as control samples. The control samples were analyzed under the same conditions. The concentrations of prednisolone acetate in the stability samples were calculated. The data were summarized in Table V. The HPLC/UV chromatograms of all reference standards and stability testing samples are depicted in FIG. 18 to FIG. 23.
# as §1, with “3.” for “2.”, “loteprednol etabonate” for “prednisolone acetate”, “calculated.” for “calculated. The data were summarized in Table V.”, “28” for “18”, “33.” for “23.”
# as §1, with “3.” for “2.”, “difluprednate” for “prednisolone acetate”, “calculated.” for “calculated. The data were summarized in Table V. The HPLC/UV chromatograms of all reference standards and stability testing samples are depicted in FIG. 18 to FIG. 23.”
# [3] = Day 0, room temperature, 0.6% PVP-I, mean of replicates
# [4] = Day 0, room temperature, 0.6% PVP-I, single replicates
# [5] = four weeks control, spiked 50 μL of H2O, room temperature without PVP-I
# [6] = four weeks, room temperature, 0.6% PVP-I, mean of replicates
# [7] = four weeks, room temperature, 0.6% PVP-I, single replicates
# [8] = 2 weeks, 40° C., with PVP-I 0.4%
# [9] = 2 weeks, room temp, with PVP-I 0.4%
# [10] = one month, 40° C., with PVP-I 0.4%, mean of two runs
# [11] = one month, 40° C., with PVP-I 0.4%, single samples
# [12] = one month, room temp, with PVP-I 0.4%
# [13] = 2 weeks, 40° C. control, stored without PVP-I
# [14] = Day 0, room temp, with PVP-I 0.4%, mean of replicates
# [15] = Day 0, room temp, with PVP-I 0.4%, single replicates
# [16] = one month, 40° C. control, stored without PVP-I
SMILES,"% of Std [1, 3]","% of Std [1, 4]","% of Day 0 [1, 5]","% of Std [1, 5]","% of Day 0 [1, 6]","% of Std [1, 6]","% of Day 0 [1, 7]","% of Std [1, 7]","% of Day 0 [2, 8]","% of Day 0 [2, 9]","% of Day 0 [2, 11]","% of Day 0 [2, 12]",further results
"Nc1c(CC(=O)O)cccc1C(=O)c1ccc(Br)cc1 [Bromfenac, bromfenac]",98.86%,99.74% and 97.96%,101.19%,100.03%,99.37%,98.23%,100.01% and 98.73%,98.87% and 97.6%,–,–,–,–,–
C[C@@H]1C[C@H]2[C@@H]3CCC4=CC(=O)C=C[C@]4(C)[C@@]3(F)[C@@H](O)C[C@]2(C)[C@@]1(O)C(=O)COP(=O)([O-])[O-].[Na+].[Na+] [Dexamethasone Sodium Phosphate],–,–,–,–,–,–,–,–,84.57%,83.04%,84.42% and 83.76%,84.24%,"stability in the presence of PVP-I (result in words) ([2]; PVP-I 0.4%, room temperature and 40° C., up to one month): not stable; % of Day 0 [2, 10]: 84.09%; % of Std [2, 10]: 87.00%; degradation products observed [2]: three additional peaks; degradation products observed ([2]; listed as dexamethasone phosphate): Three degradation products (D1, D2, and D3) were observed"
CCCC(=O)O[C@]1(C(=O)COC(C)=O)CC[C@H]2[C@@H]3C[C@H](F)C4=CC(=O)C=C[C@]4(C)[C@@]3(F)[C@@H](O)C[C@@]21C [Difluprednate],–,–,–,–,–,–,–,–,99.30%,103.23%,100.24%,104.47%,"% of Day 0 [2, 13]: 89.50%; % of Std [2, 13]: 89.50%; % of Std [2, 8]: 95.57%; % of Std [2, 9]: 99.36%; % of Std [2, 14]: 96.25%; % of Std [2, 15]: 95.78% and 96.72%; % of Day 0 [2, 16]: 97.86%; % of Std [2, 16]: 97.86%; % of Std [2, 11]: 96.48%; % of Std [2, 12]: 100.56%"
"CC(=O)[C@@]1(O)CC[C@H]2[C@@H]3C[C@H](C)C4=CC(=O)C=C[C@]4(C)[C@@]3(F)[C@@H](O)C[C@@]21C [Fluorometholone, fluorometholone]",101.28%,101.42% and 101.14%,97.97%,99.22%,98.44%,99.7%,98.03% and 98.87%,99.28% and 100.14%,–,–,–,–,–
"CC(=O)OCC(=O)[C@@]1(O)CC[C@H]2[C@@H]3CCC4=CC(=O)CC[C@]4(C)[C@H]3[C@@H](O)C[C@@]21C [Hydrocortisone acetate, hydrocortisone acetate]",100.57%,101.62% and 99.52%,101.08%,101.66%,100.95%,101.53%,100.58% and 101.33%,101.15% and 101.91%,–,–,–,–,–
CCOC(=O)O[C@]1(C(=O)OCCl)CC[C@H]2[C@@H]3CCC4=CC(=O)C=C[C@]4(C)[C@H]3[C@@H](O)C[C@@]21C [Loteprednol Etabonate],–,–,–,–,–,–,–,–,100.07%,101.43%,96.02%,100.72%,"% of Day 0 [2, 13]: 101.69%; % of Std [2, 13]: 101.69%; % of Std [2, 8]: 100.54%; % of Std [2, 9]: 101.91%; % of Std [2, 14]: 100.48%; % of Std [2, 15]: 101.00% and 99.95%; % of Day 0 [2, 16]: 97.64%; % of Std [2, 16]: 97.64%; % of Std [2, 11]: 96.48%; % of Std [2, 12]: 101.20%"
"NC(=O)Cc1cccc(C(=O)c2ccccc2)c1N [Nepafenac, nepafenac]",98.7%,98.22% and 99.18%,100.06%,98.76%,97.2%,95.94%,97.83% and 96.58%,96.56% and 95.32%,–,–,–,–,–
"N#Cc1cc(NC(=O)C(=O)O)c(Cl)c(NC(=O)C(=O)O)c1.NC(CO)(CO)CO.NC(CO)(CO)CO [lodoxamide, lodoxamide tromethamine]",–,–,–,–,–,–,–,–,–,–,–,–,"stability in PVP-I (result in words) ([1]; 0.6% PVP-I, room temperature, week 4): appeared to be stable"

# More lines, main results first:
"% of Std [1, 3]","% of Std [1, 4]","% of Day 0 [1, 5]","% of Std [1, 5]","% of Day 0 [1, 6]","% of Std [1, 6]","% of Day 0 [1, 7]","% of Std [1, 7]","% of Day 0 [2, 8]","% of Day 0 [2, 9]","% of Day 0 [2, 11]","% of Day 0 [2, 12]",SMILES,further results
–,–,–,–,–,–,–,–,96.60%,99.24%,96.79%,95.66%,CC(=O)OCC(=O)[C@@]1(O)CC[C@H]2[C@@H]3CCC4=CC(=O)C=C[C@]4(C)[C@H]3[C@@H](O)C[C@@]21C [Prednisolone Acetate],"% of Day 0 [2, 13]: 100.74%; % of Std [2, 13]: 100.74%; % of Std [2, 8]: 101.08%; % of Std [2, 9]: 103.84%; % of Std [2, 14]: 104.64%; % of Std [2, 15]: 104.83% and 104.45%; % of Day 0 [2, 16]: 100.29%; % of Std [2, 16]: 100.29%; % of Std [2, 11]: 101.28%; % of Std [2, 12]: 100.10%"
97.76%,97.93% and 97.59%,102.87%,100.57%,95.66%,93.52%,95.1% and 96.23%,92.97% and 94.07%,–,–,–,–,"C[C@]12C=CC(=O)C=C1CC[C@@H]1[C@@H]2C(=O)C[C@@]2(C)[C@H]1CC[C@]2(O)C(=O)COP(=O)([O-])[O-].[Na+].[Na+] [Prednisone sodium phosphate, prednisone sodium phosphate]",–
99.67%,98.83% and 100.5%,97.41%,97.09%,99.88%,99.55%,100.23% and 99.53%,99.9% and 99.2%,–,–,–,–,"CCC(=O)[C@@]1(C)[C@H](C)C[C@H]2[C@@H]3CCC4=CC(=O)C=C[C@]4(C)[C@H]3[C@@H](O)C[C@@]21C [Rimexolone, rimexolone]",–
